Experimental data reported in BindingDB's records for patent US10766864 (Nektar Therapeutics, 2020).

Target: Mu-type opioid receptor (Homo sapiens, UniProt P35372)
Test: Receptor Binding Assay
Method: Affinities of various compounds were measured in vitro using competitive radioligand binding assays. Serial dilutions of test compounds were incubated with membranes prepared from CHO-K1 cells expressing the mu opioid receptor (MOR; for opioid receptor binding) or rat forebrain membranes (for NMDA receptor binding). 2 nM [3H] Naloxone (MOR) or 0.2 nM [3H] MK801 (NMDA) were used as the specific, competitive radioligands. 10 uM Naloxone (MOR), or 10 uM MK801 (NMDA) was used to determine non-specific binding. Bound radioactivity was measured using a scintillation counter & IC50 values for test compounds were determined by non-linear regression analysis using a one-site competition model (Graph Pad Prizm). Due to each test compound being solubilized in a buffered system for the assay, the results presented herein reflect the free base activity.

Sequence of Mu-type opioid receptor (P35372 whole entry): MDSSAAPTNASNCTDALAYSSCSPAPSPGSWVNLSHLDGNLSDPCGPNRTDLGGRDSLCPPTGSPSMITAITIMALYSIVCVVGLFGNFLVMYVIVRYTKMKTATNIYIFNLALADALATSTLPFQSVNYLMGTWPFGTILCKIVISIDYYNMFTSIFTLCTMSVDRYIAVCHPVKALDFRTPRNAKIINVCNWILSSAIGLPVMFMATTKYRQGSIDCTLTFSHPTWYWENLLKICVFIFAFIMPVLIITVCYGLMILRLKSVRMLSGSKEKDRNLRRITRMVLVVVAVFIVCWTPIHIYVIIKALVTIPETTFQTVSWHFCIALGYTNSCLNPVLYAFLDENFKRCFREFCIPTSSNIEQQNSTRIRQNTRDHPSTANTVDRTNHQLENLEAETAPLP

Structure (SMILES): COCCOCCN1CC[C@]23CCCC[C@H]2[C@H]1Cc1cc2sc(N)nc2cc13 [US10766864, Example 97]
- IC50: > 1 µM
